Laboratory results taken from ChEMBL document CHEMBL3875216, “Synthesis of antimicrobial glucosamides as bacterial quorum sensing mechanism inhibitors” (Bioorg Med Chem, 2017).

What was measured:
Pseudomonas aeruginosa [1] = test: Growth inhibition of Pseudomonas aeruginosa MH602 at 500 uM after 24 hrs relative to control; settings: MH602, 24 h, read-out: GI
Pseudomonas aeruginosa [2] = test: Growth inhibition of Pseudomonas aeruginosa MH602 at 1 mM after 24 hrs relative to control; settings: MH602, 24 h, read-out: GI
Pseudomonas aeruginosa [3] = test: Growth inhibition of Pseudomonas aeruginosa MH602 at 500 uM after 8 hrs relative to control; settings: MH602, 8 h, read-out: GI
Pseudomonas aeruginosa [4] = test: Growth inhibition of Pseudomonas aeruginosa PA14 at 2 mM after 24 hrs relative to control; settings: 2000 µM
[5] = tested on: Pseudomonas aeruginosa PA14; test: Inhibition of quorum sensing-regulated pyocyanin production in Pseudomonas aeruginosa PA14 at 2 mM after 24 hrs relative to control
Pseudomonas aeruginosa [6] = test: Inhibition of LasR-dependent quorum sensing activity in Pseudomonas aeruginosa MH602 harboring GFP-fused […] LasB promoter assessed as inhibition of 3-oxo-dodecanoyl HSL-induced GFP expression at 500 uM measured after 8 hrs by fluorescence assay relative to control
Pseudomonas aeruginosa [7] = test: Inhibition of LasR-dependent quorum sensing activity in Pseudomonas aeruginosa MH602 harboring GFP-fused […] LasB promoter assessed as inhibition of 3-oxo-dodecanoyl HSL-induced GFP expression at 1 mM measured after 8 hrs by fluorescence assay relative to control
Escherichia coli [8] = test: Inhibition of LuxR-dependent quorum sensing activity in Escherichia coli MT102 harboring pJBA132 assessed as inhibition of OHHL-induced GFP expression at 500 uM measured after 8 hrs by fluorescence assay relative to control
Pseudomonas aeruginosa [9] = test: Growth inhibition of Pseudomonas aeruginosa MH602 at 2 mM after 8 hrs relative to control; settings: MH602, 8 h, read-out: GI
Pseudomonas aeruginosa [10] = test: Inhibition of LasR-dependent quorum sensing activity in Pseudomonas aeruginosa MH602 harboring GFP-fused […] LasB promoter assessed as inhibition of 3-oxo-dodecanoyl HSL-induced GFP expression at 2 mM measured after 8 hrs by fluorescence assay relative to control
Escherichia coli [11] = test: Inhibition of LuxR-dependent quorum sensing activity in Escherichia coli MT102 harboring pJBA132 assessed as inhibition of OHHL-induced GFP expression at 1 mM measured after 24 hrs by fluorescence assay relative to control
Pseudomonas aeruginosa [12] = test: Growth inhibition of Pseudomonas aeruginosa MH602 at 1 mM after 8 hrs relative to control; settings: MH602, 8 h, read-out: GI
Escherichia coli [13] = test: Growth inhibition of Escherichia coli MT102 at 2 mM after 8 hrs relative to control; settings: MT102, 8 h, read-out: GI
Escherichia coli [14] = test: Inhibition of LuxR-dependent quorum sensing activity in Escherichia coli MT102 harboring pJBA132 assessed as inhibition of OHHL-induced GFP expression at 1 mM measured after 8 hrs by fluorescence assay relative to control
Escherichia coli [15] = test: Growth inhibition of Escherichia coli MT102 at 2 mM after 24 hrs relative to control; settings: MT102, 24 h, read-out: GI
Escherichia coli [16] = test: Growth inhibition of Escherichia coli MT102 at 1 mM after 24 hrs relative to control; settings: MT102, 24 h, read-out: GI
Escherichia coli [17] = test: Growth inhibition of Escherichia coli MT102 at 500 uM after 8 hrs relative to control; settings: MT102, 8 h, read-out: GI
Escherichia coli [18] = test: Inhibition of LuxR-dependent quorum sensing activity in Escherichia coli MT102 harboring pJBA132 assessed as inhibition of OHHL-induced GFP expression at 2 mM measured after 8 hrs by fluorescence assay relative to control
Pseudomonas aeruginosa [19] = test: Growth inhibition of Pseudomonas aeruginosa MH602 at 2 mM after 24 hrs relative to control; settings: MH602, 24 h, read-out: GI
Escherichia coli [20] = test: Growth inhibition of Escherichia coli MT102 at 500 uM after 24 hrs relative to control; settings: MT102, 24 h, read-out: GI
[21] = tested on: Pseudomonas aeruginosa PA14; test: Inhibition of quorum sensing-regulated biofilm formation in Pseudomonas aeruginosa PA14 at 2 mM after overnight incubation by crystal violet staining based assay relative to control
Escherichia coli [22] = test: Growth inhibition of Escherichia coli MT102 at 1 mM after 8 hrs relative to control; settings: MT102, 8 h, read-out: GI
Pseudomonas aeruginosa [23] = test: Inhibition of LasR-dependent quorum sensing activity in Pseudomonas aeruginosa MH602 harboring GFP-fused […] LasB promoter assessed as inhibition of 3-oxo-dodecanoyl HSL-induced GFP expression at 2 mM measured after 24 hrs by fluorescence assay relative to control
Pseudomonas aeruginosa [24] = test: Inhibition of LasR-dependent quorum sensing activity in Pseudomonas aeruginosa MH602 harboring GFP-fused […] LasB promoter assessed as inhibition of 3-oxo-dodecanoyl HSL-induced GFP expression at 500 uM measured after 24 hrs by fluorescence assay relative to control
Escherichia coli [25] = test: Inhibition of LuxR-dependent quorum sensing activity in Escherichia coli MT102 harboring pJBA132 assessed as inhibition of OHHL-induced GFP expression at 2 mM measured after 24 hrs by fluorescence assay relative to control
Pseudomonas aeruginosa [26] = test: Inhibition of LasR-dependent quorum sensing activity in Pseudomonas aeruginosa MH602 harboring GFP-fused […] LasB promoter assessed as inhibition of 3-oxo-dodecanoyl HSL-induced GFP expression at 1 mM measured after 24 hrs by fluorescence assay relative to control

| Compound | inhibition at 500 µM (Pseudomonas aeruginosa [1]) [%] | inhibition at 1000 µM (Pseudomonas aeruginosa [2]) [%] | inhibition at 500 µM (Pseudomonas aeruginosa [3]) [%] | growth inhibition (GI) (Pseudomonas aeruginosa [4]) | inhibition (Pseudomonas aeruginosa [6]) [%] | inhibition (Pseudomonas aeruginosa [7]) [%] | inhibition (Escherichia coli [8]) [%] | inhibition at 2000 µM (Pseudomonas aeruginosa [9]) [%] | inhibition (Pseudomonas aeruginosa [10]) [%] | inhibition (Escherichia coli [11]) [%] | inhibition at 1000 µM (Pseudomonas aeruginosa [12]) [%] | inhibition at 2000 µM (Escherichia coli [13]) [%] | inhibition at 2000 µM (Escherichia coli [15]) [%] | inhibition at 1000 µM (Escherichia coli [16]) [%] | inhibition at 500 µM (Escherichia coli [17]) [%] | inhibition (Escherichia coli [18]) [%] | inhibition at 2000 µM (Pseudomonas aeruginosa [19]) [%] | inhibition at 500 µM (Escherichia coli [20]) [%] | inhibition [21] [%] | inhibition at 1000 µM (Escherichia coli [22]) [%] | also measured |
| --- | --- | --- | --- | --- | --- | --- | --- | --- | --- | --- | --- | --- | --- | --- | --- | --- | --- | --- | --- | --- | --- |
| O=C(Cc1ccc(F)cc1)N[C@@H]1[C@@H](O)[C@H](O)[C@@H](CO)O[C@H]1O | 1.4 | 3 | 0 | Non-Toxic | 9.2 | 29 | 2.4 | 0 | 31.3 | 2 | 0 | 0 | 15.8 | 8.8 | 0 | 12.6 | 0 | 19.4 | 5.1 | 0 | inhibition [5]: 6.6%; inhibition (Escherichia coli [14]): 3.6%; inhibition (Pseudomonas aeruginosa [23]): 2.9% |
| O=C(Cc1ccc(Br)cc1)N[C@@H]1[C@@H](O)[C@H](O)[C@@H](CO)O[C@H]1O | 1.8 | 1.6 | 0 | Non-Toxic | 6.6 | 14.3 | 11.9 | 0 | 15.3 | 4.6 | 1.8 | 0 | 6.1 | 5.9 | 0 | 15.2 | 4 | 3 | 17.3 | 0 | inhibition [5]: 8.6%; inhibition (Pseudomonas aeruginosa [24]): 2.4%; inhibition (Escherichia coli [25]): 1.1%; inhibition (Escherichia coli [14]): 6.5% |
| CCCCCCCCCC(=O)N[C@H]1[C@H](OC(C)=O)O[C@H](COC(C)=O)[C@@H](OC(C)=O)[C@@H]1OC(C)=O | 0 | 1.2 | 0 | Non-Toxic | 10.2 | 7 |  | 10.2 |  | 5.1 | 7.8 | 30.6 | 15.9 | 12.6 | 12.8 | 48.1 | 0 | 11.1 | 46.9 | 0 | inhibition (Pseudomonas aeruginosa [26]): 7.8%; inhibition (Escherichia coli [25]): 35.5%; inhibition (Pseudomonas aeruginosa [23]): 17.2% |
| CC(=O)OC[C@H]1O[C@@H](OC(C)=O)[C@H](NC(=O)Cc2ccc(F)cc2)[C@@H](OC(C)=O)[C@@H]1OC(C)=O | 0 | 0 | 0 | Non-Toxic | 5.9 | 7.3 | 14.1 | 0 | 7.4 | 1.3 | 0 | 0 | 0 | 9.4 | 0 | 17.1 | 0 | 11.8 | 45.6 | 0 | inhibition (Pseudomonas aeruginosa [26]): 4.3%; inhibition (Escherichia coli [25]): 61.1%; inhibition (Escherichia coli [14]): 14%; inhibition (Pseudomonas aeruginosa [23]): 5.7% |
| CCCCCC(=O)CC(=O)N[C@H]1[C@H](OC(C)=O)O[C@H](COC(C)=O)[C@@H](OC(C)=O)[C@@H]1OC(C)=O | 4.2 | 0 | 0 | Non-Toxic | 4.9 | 8.9 | 7.7 | 0 | 18.9 |  | 0 | 9.2 | 20.8 | 13.2 | 0 | 7.9 | 0 | 2.3 | 19.5 | 2.3 | inhibition [5]: 1.9%; inhibition (Pseudomonas aeruginosa [24]): 3.3%; inhibition (Escherichia coli [14]): 2.1%; inhibition (Pseudomonas aeruginosa [23]): 2.5% |
